From patent US10662203B2, “Pyrido[2,3-b]indole compounds for the treatment and prophylaxis of bacterial infection” (Hoffmann-La Roche Inc., priority 2017, dated 2020)
In brackets after ≈: the same amount, converted by molar mass. Like-named read-outs stand apart in the source and are kept apart here.

Legend:
[1] = Cytotoxicity assay (HepG2, CellTiter-Blue cell viability); assay type: cell-based; conditions: human
Description: The cytotoxicity of compounds of present invention was assessed by HepG2 assay. HepG2 cells (ATCC HB-8065™) were seeded into 96-well plates (1.2×10^4 cells per well) and treated with compounds for 3 days, cell viability was measured at day 3 post compound treatment using the CellTiter-Blue® Cell Viability Assay (Promega, Cat. No. G8082). 20 μL of Cell titer blue buffer were added to each well of the cells, which were incubated for 3 hours at 37° C., and the fluorescence value was measured by a plate reader (Molecular Device SpectraMax M2). The CC50 value of each compound is plotted with GraphPad Prism using four parameter logistic equation.

A. baumannii (ATCC17978) = test: 50% growth inhibitory concentration (IC50) determination assay; assay type: cell-based; conditions: Acinetobacter baumannii, ATCC17978, A. baumannii ATCC17978; Iso-Sensitest broth; 0.098 = detection limit
In short: (§1)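 First, DMSO stocks are diluted two-fold to give 50–0.097 μM final. Next, wells receive bacterial suspension in Iso-Sensitest broth for ~5×10^5 CFU/mL. Plates then sit at 35±2° C while OD at 600 nm is recorded every 20 min for 16 h.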

[2] = system: K. pneumoniae (ATCC10031); test: as above; assay type: cell-based; conditions: Klebsiella pneumoniae, Iso-Sensitest broth, 0.098 = detection limit
In short: as §1

S. aureus (ATCC29213) = test: as above; assay type: cell-based; conditions: Staphylococcus aureus, Iso-Sensitest broth, 0.098 = detection limit
In short: as §1

[3] = Lyophilisation solubility assay (LYSA); assay type: physicochemical; conditions: phosphate buffer, pH 6.5, aqueous buffer, thermodynamic from solid, 0.05 M phosphate buffer, HPLC-UV
Description: Lyophilisation Solubility Assay (LYSA):
The solubility of compounds of present invention was assessed by LYSA assay. Samples were prepared in duplicate from 10 mM DMSO stock solutions (20 μL) diluted in 30 μL pure DMSO. After evaporation of DMSO with a centrifugal vacuum evaporator, the residue was dissolved in 0.05 M phosphate buffer (150 μL, pH 6.5), which was stirred for one hour and shook for two hours. After one night, the solution was filtered using a microtiter filter plate. Then the filtrate and its 1/10 dilution were analyzed by HPLC-UV.

[4] = HepG2 cells, 3 days treatment, "*": the detection limit, read-out: CC50

Compound	CC50 at 3 days [1, 4]	CC50 at 3 days [1]	IC50 (A. baumannii (ATCC17978))	IC50 [2]	IC50 (S. aureus (ATCC29213))	solubility thermodynamic [3]
CNc1cc(F)cc2c1[nH]c1ncc(-c3cnc4c(c3)c(=O)c(C(=O)O)cn4C)c(N3CCC(O)(C(F)(F)F)C3)c12 (stereo not shown) [Example 1.25]	62600 nM	–	–	–	–	–
CNc1cc(F)c(F)c2c1[nH]c1ncc(-c3cnc4c(c3)c(=O)c(C(=O)O)cn4CC3COCCN3)c(N3CCOCC3)c12 (stereo not shown) [Example 1.31]	49000 nM	–	–	–	–	–
CCNc1cc(F)cc2c1[nH]c1ncc(-c3cnc4c(c3)c(=O)c(C(=O)O)cn4C3CCNC3)c(N3CCOCC3)c12 (stereo not shown) [Example 1.34]	> 100000 nM	–	–	–	–	–
CNc1cc(F)cc2c1[nH]c1ncc(-c3cnc4c(c3)c(=O)c(C(=O)O)cn4CC3COCCN3)c(NC)c12 (stereo not shown) [Example 1.37]	55500 nM	–	–	–	–	–
CNc1cc(F)c(F)c2c1[nH]c1ncc(-c3cnc4c(c3)c(=O)c(C(=O)O)cn4CC3COCCN3)c(N(C)CCOC)c12 (stereo not shown) [Example 1.41]	90200 nM	–	–	–	–	–
CNc1cc(F)c(F)c2c1[nH]c1ncc(-c3cnc4c(c3)c(=O)c(C(=O)O)cn4CC3CNCCO3)c(N3CCOCC3)c12 (stereo not shown) [Example 1.42]	> 100000 nM	–	–	–	–	–
CNc1cc(F)cc2c1[nH]c1ncc(-c3cnc4c(c3)c(=O)c(C(=O)O)cn4C(C)(CO)CO)c(N3CCOCC3)c12 [Example 1.44]	> 100000 nM	–	–	–	–	–
CNc1cc(F)cc2c1[nH]c1ncc(-c3cnc4c(c3)c(=O)c(C(=O)O)cn4C)c(N3CCC(O)C3)c12 (stereo not shown) [Example 1.47]	> 100000 nM	–	–	–	–	–
CNc1c(Cl)c(F)cc2c1[nH]c1ncc(-c3cnc4c(c3)c(=O)c(C(=O)O)cn4C3CCNC3)c(N(C)C)c12 (stereo not shown) [Example 1.68]	26500 nM	–	–	–	–	–
CCn1cc(C(=O)O)c(=O)c2cc(-c3cnc4[nH]c5c(NC)cc(F)c(F)c5c4c3N3CC4CC(C3)O4)cnc21 [Example 1.128]	–	27100 nM	–	–	–	–
CNc1cc(F)c(F)c2c1[nH]c1ncc(-c3cnc4c(c3)c(=O)c(C(=O)O)cn4C)c(N3CCC4(CN(C)C4)C3)c12 [Example 1.228]	> 100000 nM	–	–	–	–	–
CCNn1cc(C(=O)O)c(=O)c2cc(-c3cnc4[nH]c5c(NC)cc(F)c(F)c5c4c3N3CC[C@@H](N(C)C)C3)cnc21 [Example 1.258]	–	–	< 0.098 µM	< 0.098 µM	< 0.098 µM	17 µg/mL (≈ 29.5 µM)
CNc1cc(F)cc2c1[nH]c1ncc(-c3cnc4c(c3)c(=O)c(C(=O)O)cn4C3CCNC3)c(N3CCCC3)c12 (stereo not shown) [Example 1.259]	–	–	0.533 µM	< 0.098 µM	< 0.098 µM	17 µg/mL (≈ 31.4 µM)
CNc1cc(F)c(F)c2c1[nH]c1ncc(-c3cnc4c(c3)c(=O)c(C(=O)O)cn4C)c(N3CC4[C@H](CCN4CCCO)C3)c12 (stereo partly shown) [Example 1.260]	–	–	0.558 µM	< 0.098 µM	< 0.098 µM	277 µg/mL (≈ 459 µM)
CNc1cc(Cl)cc2c1[nH]c1ncc(-c3cnc4c(c3)c(=O)c(C(=O)O)cn4NC)c(N3CC[C@H]4CN(C)CC43)c12 (stereo partly shown) [Example 1.264]	–	–	0.267 µM	< 0.098 µM	< 0.098 µM	159 µg/mL (≈ 277 µM)
CNc1cc(Cl)c(F)c2c1[nH]c1ncc(-c3cnc4c(c3)c(=O)c(C(=O)O)cn4NC)c(N3CC[C@H]4CN(C)CC43)c12 (stereo partly shown) [Example 1.266]	–	–	0.066 µM	< 0.098 µM	< 0.098 µM	241 µg/mL (≈ 408 µM)

Compound	CC50 at 3 days [1, 4]	CC50 at 3 days [1]	IC50 (A. baumannii (ATCC17978))	IC50 [2]	IC50 (S. aureus (ATCC29213))	solubility thermodynamic [3]
CNc1cc(Cl)c(F)c2c1[nH]c1ncc(-c3cnc4c(c3)c(=O)c(C(=O)O)cn4C)c(N3CC[C@H]4CN(C)CC43)c12 (stereo partly shown) [Example 1.267]	–	–	0.072 µM	< 0.098 µM	< 0.098 µM	104 µg/mL (≈ 181 µM)
CNc1cc(F)cc2c1[nH]c1ncc(-c3cnc4c(c3)c(=O)c(C(=O)O)cn4C)c(N3CCC4(C)CN(C)CC34)c12 (stereo not shown) [Example 1.272]	–	–	0.112 µM	< 0.098 µM	< 0.098 µM	> 632 µg/mL
CNc1cc(F)cc2c1[nH]c1ncc(-c3cnc4c(c3)c(=O)c(C(=O)O)cn4NC)c(N3CCC4(C)CN(C)CC34)c12 (stereo not shown) [Example 1.273]	–	–	0.254 µM	< 0.098 µM	< 0.098 µM	468 µg/mL (≈ 820 µM)
CCN1CC2[C@@H](CCN2c2c(-c3cnc4c(c3)c(=O)c(C(=O)O)cn4C)cnc3[nH]c4c(NC)cc(F)c(F)c4c23)C1 (stereo partly shown) [Example 1.279]	–	–	0.215 µM	< 0.098 µM	< 0.098 µM	151 µg/mL (≈ 263 µM)
CCn1cc(C(=O)O)c(=O)c2cc(-c3cnc4[nH]c5c(NC)cc(F)cc5c4c3N3CC[C@H]4CN(C)CC43)cnc21 (stereo partly shown) [Example 1.289]	–	–	0.21 µM	< 0.098 µM	< 0.098 µM	113 µg/mL (≈ 203 µM)
CCNn1cc(C(=O)O)c(=O)c2cc(-c3cnc4[nH]c5c(NC)cc(F)cc5c4c3N3CC[C@H]4CN(C)CC43)cnc21 (stereo partly shown) [Example 1.290]	–	–	0.148 µM	< 0.098 µM	< 0.098 µM	247 µg/mL (≈ 433 µM)
CCNn1cc(C(=O)O)c(=O)c2cc(-c3cnc4[nH]c5c(NC)cc(F)c(F)c5c4c3N3CC[C@H]4CN(C)CC43)cnc21 (stereo partly shown) [Example 1.291]	–	–	0.157 µM	< 0.098 µM	< 0.098 µM	138 µg/mL (≈ 234 µM)
CNc1cc(F)c(F)c2c1[nH]c1ncc(-c3cnc4c(c3)c(=O)c(C(=O)O)cn4NC)c(N3C[C@@H]4CCN(C)[C@@H]4C3)c12 [Example 3.07B]	–	–	0.155 µM	< 0.098 µM	0.122 µM	33 µg/mL (≈ 57.4 µM)
CNc1cc(F)cc2c1[nH]c1ncc(-c3cnc4c(c3)c(=O)c(C(=O)O)cn4NC)c(N3C[C@H]4CCN(C)[C@H]4C3)c12 [Example 3.17A]	–	–	0.087 µM	< 0.098 µM	< 0.098 µM	118 µg/mL (≈ 212 µM)
CNc1cc(F)cc2c1[nH]c1ncc(-c3cnc4c(c3)c(=O)c(C(=O)O)cn4NC)c(N3C[C@@H]4CCN(C)[C@@H]4C3)c12 [Example 3.17B]	–	–	0.075 µM	< 0.098 µM	< 0.098 µM	125 µg/mL (≈ 225 µM)
CNc1cc(F)cc2c1[nH]c1ncc(-c3cnc4c(c3)c(=O)c(C(=O)O)cn4C)c(N3CC[C@H]4CCN(C)[C@H]4C3)c12 [Example 3.18A]	–	–	0.081 µM	< 0.098 µM	< 0.098 µM	172 µg/mL (≈ 310 µM)
CNc1cc(F)cc2c1[nH]c1ncc(-c3cnc4c(c3)c(=O)c(C(=O)O)cn4C)c(N3CC[C@@H]4CCN(C)[C@@H]4C3)c12 [Example 3.18B]	–	–	0.275 µM	< 0.098 µM	0.133 µM	338 µg/mL (≈ 608 µM)
CNc1cc(F)cc2c1[nH]c1ncc(-c3cnc4c(c3)c(=O)c(C(=O)O)cn4NC)c(N3C[C@H]4OCCN(C)[C@H]4C3)c12 [Example 3.23A]	–	–	0.865 µM	< 0.098 µM	< 0.098 µM	49 µg/mL (≈ 85.6 µM)
CNc1cc(F)cc2c1[nH]c1ncc(-c3cnc4c(c3)c(=O)c(C(=O)O)cn4NC)c(N3C[C@@H]4OCCN(C)[C@@H]4C3)c12 [Example 3.23B]	–	–	0.789 µM	< 0.098 µM	< 0.098 µM	58 µg/mL (≈ 101 µM)
CNc1cc(F)c(F)c2c1[nH]c1ncc(-c3cnc4c(c3)c(=O)c(C(=O)O)cn4C)c(N3C[C@@H](F)C[C@H]3CN(C)C)c12 [Example 7.01, 6-(4-((2S,4S)-2-((Dimethylamino)methyl)-4-fluoropyrrolidin-1-yl)-5,6-difluoro-8-(methylamino)-9H-pyrido[2,3-b]indol-3-yl)-1-methyl-4-oxo-1,4-dihydro-1,8-naphthyridine-3-carboxylic acid]	–	–	0.28 µM	< 0.098 µM	< 0.098 µM	330 µg/mL (≈ 569 µM)
